Assay results as given in patent US10260079B2, “Method for producing ergothioneine by using soybean cake powder as nitrogen source in a seed medium” (TIANJIN INSTITUTE OF INDUSTRIAL BIOTECHNOLOGY, CHINESE …, priority 2014, dated 2019).
Where “and” joins values, the source holds several entries; their conditions need not be identical. Identical values can stand only once. Like-named read-outs stand apart in the source and are kept apart here.

Assays:
[1] = tested on: Pleurotus ostreatus mycelia CGMCC No. 6232; assay: Shake-flask fermentation, content of extracellular ergothioneine in the filtrate by HPLC
Description: Seed medium: corn flour 30 g/L, soybean meal powder 15 g/L, α-amylase 80 U/L, KH2PO4 3 g/L, MgSO4.7H2O 1.5 g/L, and a balance of water. The seed medium was sterilized at 121° C. for 20 min, and the liquid volume in a 500 mL triangular flask was 150 mL. […] A lawn of the strain CGMCC No. 6232 was picked from the PDA slant and inoculated into the seed medium, cultured on a shaker at 150 rpm at 25° C. for 4 days, to obtain a seed liquor. […] The obtained permeate was the test sample for detection of the content of extracellular ergothioneine in the filtrate. […] The solutions were filtered with 0.22 μm millipore filter to obtain the reference solutions. Qualitative and quantitative detection: L-ergothioneine reference solutions and the test samples were detected by HPLC under the same chromatographic conditions. The chromatograms of the test samples were compared with those of the L-ergothioneine reference solutions, and the chromatographic peak of L-ergothioneine in the test sample was identified based on the retention time. A standard curve was plotted with the concentrations of L-ergothioneine reference solutions and the corresponding peak areas. In the case that the sample load of the reference solution was identical with that of the test sample, an external standard method was used for quantification so as to calculate the content of ergothioneine in the test sample. The concentration of ergothioneine in the test sample was the concentration of ergothioneine in the fermentation broth. Detection conditions: the chromatographic column was Agilent Eclipse XDB-C18 (4.6×250 mm, 5 μm), with two chromatographic columns in series; the mobile phase was 1% methanol solution, the pH of which was adjusted to 5.0 using acetic acid-sodium acetate buffer; the detection wavelength was 257 nm; the flow rate was 0.7 mL/min; the column temperature was 25° C.; and the sample load was 5 μL. […] Pleurotus ostreatus mycelia CGMCC No. 6232 were subjected to fermentation and culture.

[2] = tested on: Pleurotus ostreatus mycelia CGMCC No. 6232; assay: Shake-flask fermentation, total content of ergothioneine in the fermentation broth by HPLC; assay type: cell-based

**Q.** How did the “content of extracellular ergothioneine in the filtrate” value (shortened to “content … in the filtrate”) ([1]; EDTA 0.5 g/L (highest)) turn out when `O=C(O)CN(CCN(CC(=O)O)CC(=O)O)CC(=O)O` [EDTA, ethylenediaminetetraacetic acid] was run?
**A.** 9.28 mg/L

**Q.** `OC(Cn1cncn1)(Cn1cncn1)c1ccc(F)cc1F` [Fluconazole, reference compound] was tested. Which “content … in the filtrate” value ([1]; Fluconazole 50 mg/L (highest)) did it give?
**A.** 7.67 mg/L

**Q.** And the “Content of ergothioneine in fermentation broth” value (“Content … in fermentation broth” for short) ([2]; Fluconazole 2 mg/L added in fermentation medium)?
**A.** 131.6 ± 1.92 mg/L

**Q.** What about the “Content … in fermentation broth” value ([2]; Fluconazole 5 mg/L added in fermentation medium) of the same compound?
**A.** 137.2 ± 2.51 mg/L

**Q.** And the “Content … in fermentation broth” value ([2]; Fluconazole 20 mg/L added in fermentation medium)?
**A.** 141.3 ± 3.27 mg/L

**Q.** And the “Content … in fermentation broth” value ([2]; Fluconazole 50 mg/L added in fermentation medium)?
**A.** 146.4 mg/L and 146.4 ± 3.41 mg/L

**Q.** What about the “Content … in fermentation broth” value ([2]; Fluconazole 80 mg/L added in fermentation medium) of the same compound?
**A.** 132.7 ± 3.39 mg/L

**Q.** What about the activation at 50 µg/mL ([2]; Pleurotus ostreatus, CGMCC6232, 360 h, Fluconazole 50 mg/L, read-out: content of ergothioneine improved compared with control group) of the same compound?
**A.** 19.6%

**Q.** What does the source list for `CC(=O)N1CCN(c2ccc(OCC3COC(Cn4ccnc4)(c4ccc(Cl)cc4Cl)O3)cc2)CC1` (centres unmarked) [Ketoconazole, reference compound]?
**A.** content of extracellular ergothioneine in the filtrate ([1]; Ketoconazole 50 mg/L (highest)): 5.77 mg/L; Content of ergothioneine in fermentation broth ([2]; Ketoconazole 0.5 mg/L added in fermentation medium): 127.6 ± 1.06 mg/L; Content of ergothioneine in fermentation broth ([2]; Ketoconazole 1 mg/L added in fermentation medium): 130.7 ± 2.22 mg/L; Content of ergothioneine in fermentation broth ([2]; Ketoconazole 5 mg/L added in fermentation medium): 134.1 mg/L and 134.1 ± 2.99 mg/L; Content of ergothioneine in fermentation broth ([2]; Ketoconazole 10 mg/L added in fermentation medium): 132.5 ± 1.87 mg/L; Content of ergothioneine in fermentation broth ([2]; Ketoconazole 50 mg/L added in fermentation medium): 128.9 ± 1.18 mg/L; activation at 5 µg/mL ([2]; Pleurotus ostreatus, CGMCC6232, 360 h, Ketoconazole 5 mg/L, read-out: content of ergothioneine improved compared with control group): 9.6%

**Q.** How did the “content … in the filtrate” value ([1]; Miconazole 50 mg/L (highest)) turn out when `Clc1ccc(COC(Cn2ccnc2)c2ccc(Cl)cc2Cl)c(Cl)c1` (centres unmarked) [Miconazole, reference compound] was run?
**A.** 9.14 mg/L

**Q.** What about the “Content … in fermentation broth” value ([2]; Miconazole 0.5 mg/L added in fermentation medium) of the same compound?
**A.** 132.4 ± 2.96 mg/L

**Q.** What about the “Content … in fermentation broth” value ([2]; Miconazole 1 mg/L added in fermentation medium) of the same compound?
**A.** 140.0 ± 3.28 mg/L

**Q.** What about the “Content … in fermentation broth” value ([2]; Miconazole 5 mg/L added in fermentation medium) of the same compound?
**A.** 152.9 mg/L and 152.9 ± 4.22 mg/L

**Q.** What about the “Content … in fermentation broth” value ([2]; Miconazole 10 mg/L added in fermentation medium) of the same compound?
**A.** 147.0 ± 3.09 mg/L

**Q.** What about the “Content … in fermentation broth” value ([2]; Miconazole 15 mg/L added in fermentation medium) of the same compound?
**A.** 129.8 ± 2.11 mg/L

**Q.** And the activation at 5 µg/mL ([2]; Pleurotus ostreatus, CGMCC6232, 360 h, Miconazole 5 mg/L, read-out: content of ergothioneine improved compared with control group)?
**A.** 24.9%

**Q.** `C[S+](C)[O-]` [dimethyl sulfoxide] was tested. Which “content … in the filtrate” value ([1]; dimethyl sulfoxide 2% (V/V) (highest)) did it give?
**A.** 10.18 mg/L

**Q.** Which “content … in the filtrate” value ([1]; isopropyl alcohol 2% (V/V) (highest)) does the source give for `CC(C)O` [isopropyl alcohol] here?
**A.** 10.04 mg/L

**Q.** Which activation at 2200 µg/mL ([2]; Pleurotus ostreatus, CGMCC6232, 360 h, pyruvic acid 2.2 g/L, read-out: content of ergothioneine improved compared with control group) does the source give for `CC(=O)C(=O)O` [pyruvic acid] here?
**A.** 5.9%

**Q.** And the “Content … in fermentation broth” value ([2]; pyruvic acid 0.05 g/L added in fermentation medium)?
**A.** 127.4 ± 0.57 mg/L

**Q.** And the “Content … in fermentation broth” value ([2]; pyruvic acid 0.1 g/L added in fermentation medium)?
**A.** 128.6 ± 1.03 mg/L

**Q.** And the “Content … in fermentation broth” value ([2]; pyruvic acid 0.5 g/L added in fermentation medium)?
**A.** 130.4 ± 0.82 mg/L

**Q.** What about the “Content … in fermentation broth” value ([2]; pyruvic acid 1.0 g/L added in fermentation medium) of the same compound?
**A.** 131.9 ± 1.43 mg/L

**Q.** What about the “Content … in fermentation broth” value ([2]; pyruvic acid 2.2 g/L added in fermentation medium) of the same compound?
**A.** 132.7 mg/L and 132.7 ± 0.46 mg/L

**Q.** And the “Content … in fermentation broth” value ([2]; pyruvic acid 4.5 g/L added in fermentation medium)?
**A.** 128.7 ± 0.69 mg/L

**Q.** How did the “content … in the filtrate” value ([1]; tween 80 10 g/L (highest)) turn out when `CCCCCCCC/C=C\CCCCCCCC(=O)OCCOCC(OCCO)C1OCC(OCCO)C1OCCO` (centres unmarked) [tween 80] was run?
**A.** 18.72 mg/L

**Q.** And the activation at 10000 µg/mL ([2]; Pleurotus ostreatus, CGMCC6232, 360 h, tween 80 10 g/L, read-out: content of ergothioneine improved compared with control group)?
**A.** 78.5%

**Q.** What about the “Content … in fermentation broth” value ([2]; tween 80 0.5 g/L added in fermentation medium) of the same compound?
**A.** 130.2 ± 1.56 mg/L

**Q.** And the “Content … in fermentation broth” value ([2]; tween 80 2 g/L added in fermentation medium)?
**A.** 155.9 ± 2.7 mg/L

**Q.** What about the “Content … in fermentation broth” value ([2]; tween 80 5 g/L added in fermentation medium) of the same compound?
**A.** 181.8 ± 3.95 mg/L

**Q.** What about the “Content … in fermentation broth” value ([2]; tween 80 10 g/L added in fermentation medium) of the same compound?
**A.** 217 mg/L and 217 ± 4.37 mg/L

**Q.** What about the “Content … in fermentation broth” value ([2]; tween 80 20 g/L added in fermentation medium) of the same compound?
**A.** 170.9 ± 4.43 mg/L

**Q.** And the “Content … in fermentation broth” value ([2]; tween 80 40 g/L added in fermentation medium)?
**A.** 130.9 ± 1.61 mg/L

**Q.** How did the “Content … in fermentation broth” value [2] turn out when NH4NO3 was run?
**A.** 127.2 ± 1.18 mg/L and 134 ± 2.46 mg/L and 140.7 ± 3.74 mg/L and 148 ± 0.82 mg/L and 141.4 ± 1.98 mg/L and 129.7 ± 1.03 mg/L

**Q.** And the “content of ergothioneine improved compared with control group” value (from here on “content … compared with control group”) [2]?
**A.** 18.5%

**Q.** How did the “Content … in fermentation broth” value ([2]; span 80 0.2 g/L added in fermentation medium) turn out when span 80 was run?
**A.** 124.7 ± 2.59 mg/L

**Q.** And the “Content … in fermentation broth” value ([2]; span 80 0.5 g/L added in fermentation medium)?
**A.** 156.3 ± 1.92 mg/L

**Q.** And the “Content … in fermentation broth” value ([2]; span 80 1 g/L added in fermentation medium)?
**A.** 175.1 ± 2.83 mg/L

**Q.** And the “content … compared with control group” value ([2]; span 80 3 g/L)?
**A.** 69.7%

**Q.** What about the “Content … in fermentation broth” value ([2]; span 80 3 g/L added in fermentation medium) of the same compound?
**A.** 196.5 mg/L and 196.5 ± 3.54 mg/L

**Q.** And the “Content … in fermentation broth” value ([2]; span 80 5 g/L added in fermentation medium)?
**A.** 184.3 ± 3.7 mg/L

**Q.** What about the “Content … in fermentation broth” value ([2]; span 80 10 g/L added in fermentation medium) of the same compound?
**A.** 129.6 ± 1.18 mg/L

**Q.** How did the “content … in the filtrate” value ([1]; tween 60 5 g/L (highest)) turn out when tween 60 was run?
**A.** 16.24 mg/L

**Q.** And the “Content … in fermentation broth” value ([2]; tween 60 2 g/L added in fermentation medium)?
**A.** 128.8 ± 1.51 mg/L

**Q.** What about the “Content … in fermentation broth” value ([2]; tween 60 5 g/L added in fermentation medium) of the same compound?
**A.** 173.6 ± 2.98 mg/L

**Q.** And the “content … compared with control group” value ([2]; tween 60 10 g/L)?
**A.** 74.9%

**Q.** What about the “Content … in fermentation broth” value ([2]; tween 60 10 g/L added in fermentation medium) of the same compound?
**A.** 212.7 mg/L and 212.7 ± 4.52 mg/L

**Q.** What about the “Content … in fermentation broth” value ([2]; tween 60 20 g/L added in fermentation medium) of the same compound?
**A.** 184.4 ± 3.78 mg/L

**Q.** What about the “Content … in fermentation broth” value ([2]; tween 60 40 g/L added in fermentation medium) of the same compound?
**A.** 154.2 ± 2.63 mg/L

**Q.** What about the “Content … in fermentation broth” value ([2]; tween 60 50 g/L added in fermentation medium) of the same compound?
**A.** 129.1 ± 2.1 mg/L
